Key:
morphine-treated rats = assay: Opioid-induced hyperalgesia and analgesic tolerance in rats
[1] = system: presynaptic NMDARs of spinal dorsal horn neurons; assay: Spinal cord slice recordings, morphine-treated WT and Cacna2d1 KO mice; conditions: WT mice
WT and Cacna2d1 KO mice = assay: Opioid-induced hyperalgesia and analgesic tolerance in WT and Cacna2d1 KO mice
paclitaxel-treated rats = assay: Paclitaxel-induced pain hypersensitivity in rats; assay type: in vivo, rat; conditions: intrathecal 5 μg pregabalin, 1 μg peptides
Method: To induce neuropathic pain, rats and mice were intraperitoneally injected with paclitaxel (2 mg/kg; TEVA Pharmaceuticals, North Wales, Pa.) every 2 days for a total of 4 injections (days 1, 3, 5 and 7; total dose, 8 mg/kg), as described previously (Polomano et al., 2001). Animals in the control group were intraperitoneally injected with the vehicle (Cremophor EL/ethanol, 1:1) on the same 4 days. The presence of tactile allodynia was confirmed 10 to 12 days after drug treatment. Intrathecal catheters were implanted in some paclitaxel-treated rats during isoflurane-induced anesthesia. Briefly, a small puncture was made in the atlanto-occipital membrane of the cisterna magna and inserted a PE-10 catheter with the caudal tip reaching the lumbar enlargement of the spinal cord (Chen et al., 2014a; Xie et al., 2016).
Behavioral assessment of nociception: To measure tactile allodynia, mice or rats were individually placed on a mesh floor within a suspended chamber. […]
To quantify the mechanical nociceptive threshold in rats, the paw pressure (Randall-Selitto) test was conducted on the left hindpaw using an analgesiometer (Ugo Basile, Varese, Italy). […] When the rat withdrew its paw or vocalized, the pedal was immediately released, and the withdrawal threshold was recorded (Chen et al., 2014a). […]
To assess the thermal sensitivity of rats, the were placed individually on the glass surface of a thermal testing apparatus (IITC Life Sciences, Woodland Hills, Calif.). […] The paw withdrawal latency was recorded with a timer, and the hindpaw was tested twice to obtain an average time. […] After the threshold temperature was recorded, the mice were immediately removed from the plate. The heat threshold measurement was repeated 30 min later, and the average of the 2 recorded temperatures was considered as the heat threshold. The cold threshold was measured by cooling the plate from 30° C. at a rate of 6° C./min until nocifensive behaviors were observed. […]

[2] = target: presynaptic NMDARs of spinal lamina II neurons (Rattus norvegicus, UniProt P35439+Q00959+Q00960)
[3] = target: T1, NMDARs of spinally projecting PVN neurons (Rattus norvegicus, UniProt P35439+Q00959+Q00960); assay: Recordings of spinally projecting PVN neurons in rat brain slices (Ang II); assay type: cell-based; conditions: losartan 2 μmol/L, pregabalin 20 μmol/L, peptides 1 μmol/L
T1 construct: from tissue; host or cells: rat hypothalamic slices containing the PVN (Sprague-Dawley, WKY, SHR) and synaptosomes made from them
Source text: Retrograde labeling of spinally projecting PVN neurons: Rats or mice were anesthetized with 2-3% isoflurane, and their spinal cords at the T1-T4 level were exposed through dorsal laminectomy. A fluorescent microsphere suspension (FluoSpheres, 0.04 μm; Molecular Probes, Invitrogen, Eugene, Oreg.) was pressure ejected (Nanoject II Microinjectors, Drummond Scientific Company, Broomall, Pa.) bilaterally into the IML region of the spinal cord in six separate 50-nl injections using a glass micropipette (tip diameter, 20-30 μm). […] The wound was closed with sutures after injection. Animals were returned to their cages for 4-7 days, which was sufficient time to permit the tracer to be retrogradely transported to the PVN. The animals were inspected daily for motor activity, signs of infection, and food and water intake.
Brain slice preparation: Four to seven days after fluorescent tracer injection, the animals were anesthetized with isoflurane and rapidly decapitated. […] Coronal slices (thickness, 300 μm) containing the PVN were cut from the tissue block in the ice-cold aCSF. […] The brain slices were placed in a glass-bottom chamber and continuously perfused with aCSF at 3.0 ml/min at 34° C. maintained by an inline solution heater and temperature controller.
The labeled PVN neurons were briefly identified with the aid of epifluorescence illumination, and whole-cell recordings from labeled PVN neurons were performed under differential interference contrast optics on an upright microscope (BX50 WI; Olympus Optical, Tokyo, Japan). Recordings of postsynaptic currents began 5 min after the whole-cell access was established and the current reached a steady state.
Signals were processed with an […] amplifier (Axon Instruments, Foster City, Calif.). A liquid junction potential of 15 mV (for the potassium gluconate pipette solution) was corrected during off-line analysis.
Postsynaptic NMDAR currents were elicited by puff application of 100 μmol/L NMDA to the recorded neuron using a positive pressure system (4 p.s.i., 50 ms; Toohey Company, Fairfield, N.J.). The tip of the puff pipette was placed 150 μm from the recorded neuron. […] The NMDAR current data presented in the manuscript were the average of 3 consecutive currents elicited by repeated puff NMDA. The neuron was discarded if the current was not stable.
Ang II, losartan, and NMDA were obtained from Sigma (St. Louis, Mo.). The α2δ-1Tat peptide and scrambled control peptide were synthesized by Bio Basic Inc. (Markham, Ontario, Canada) and validated by liquid chromatography and mass spectrometry. […] All drugs were prepared immediately before the experiments and applied to the slice chamber. The brain slices were first pretreated with Ang II, losartan, α2δ-1Tat peptide, or control peptide in the slice incubation chamber before recording. For electrophysiological recording, the treatment agents were immediately removed and the brain slice transferred to a separate recording chamber.

[4] = system: rats treated with the Cacna2d1 vector; assay: Withdrawal thresholds in rats overexpressing Cacna2d1 (lentiviral vector); assay type: in vivo, rat; conditions: Cacna2d1 vector rats; AP5, peptide, gabapentin intrathecal; memantine systemic
[5] = daily morphine in vehicle- or control peptide-treated rats
[6] = WT mice, morphine 10 mg/kg twice a day, 8 days
[7] = paclitaxel-treated rats, AP5 50 μM, pregabalin 20 μM, peptides 1 μM
[8] = vehicle-treated rats, AP5 50 μM, pregabalin 20 μM, peptides 1 μM

Chain of presynaptic NMDARs of spinal lamina II neurons (Q00959 20-1464 limits assumed, other chains not shown): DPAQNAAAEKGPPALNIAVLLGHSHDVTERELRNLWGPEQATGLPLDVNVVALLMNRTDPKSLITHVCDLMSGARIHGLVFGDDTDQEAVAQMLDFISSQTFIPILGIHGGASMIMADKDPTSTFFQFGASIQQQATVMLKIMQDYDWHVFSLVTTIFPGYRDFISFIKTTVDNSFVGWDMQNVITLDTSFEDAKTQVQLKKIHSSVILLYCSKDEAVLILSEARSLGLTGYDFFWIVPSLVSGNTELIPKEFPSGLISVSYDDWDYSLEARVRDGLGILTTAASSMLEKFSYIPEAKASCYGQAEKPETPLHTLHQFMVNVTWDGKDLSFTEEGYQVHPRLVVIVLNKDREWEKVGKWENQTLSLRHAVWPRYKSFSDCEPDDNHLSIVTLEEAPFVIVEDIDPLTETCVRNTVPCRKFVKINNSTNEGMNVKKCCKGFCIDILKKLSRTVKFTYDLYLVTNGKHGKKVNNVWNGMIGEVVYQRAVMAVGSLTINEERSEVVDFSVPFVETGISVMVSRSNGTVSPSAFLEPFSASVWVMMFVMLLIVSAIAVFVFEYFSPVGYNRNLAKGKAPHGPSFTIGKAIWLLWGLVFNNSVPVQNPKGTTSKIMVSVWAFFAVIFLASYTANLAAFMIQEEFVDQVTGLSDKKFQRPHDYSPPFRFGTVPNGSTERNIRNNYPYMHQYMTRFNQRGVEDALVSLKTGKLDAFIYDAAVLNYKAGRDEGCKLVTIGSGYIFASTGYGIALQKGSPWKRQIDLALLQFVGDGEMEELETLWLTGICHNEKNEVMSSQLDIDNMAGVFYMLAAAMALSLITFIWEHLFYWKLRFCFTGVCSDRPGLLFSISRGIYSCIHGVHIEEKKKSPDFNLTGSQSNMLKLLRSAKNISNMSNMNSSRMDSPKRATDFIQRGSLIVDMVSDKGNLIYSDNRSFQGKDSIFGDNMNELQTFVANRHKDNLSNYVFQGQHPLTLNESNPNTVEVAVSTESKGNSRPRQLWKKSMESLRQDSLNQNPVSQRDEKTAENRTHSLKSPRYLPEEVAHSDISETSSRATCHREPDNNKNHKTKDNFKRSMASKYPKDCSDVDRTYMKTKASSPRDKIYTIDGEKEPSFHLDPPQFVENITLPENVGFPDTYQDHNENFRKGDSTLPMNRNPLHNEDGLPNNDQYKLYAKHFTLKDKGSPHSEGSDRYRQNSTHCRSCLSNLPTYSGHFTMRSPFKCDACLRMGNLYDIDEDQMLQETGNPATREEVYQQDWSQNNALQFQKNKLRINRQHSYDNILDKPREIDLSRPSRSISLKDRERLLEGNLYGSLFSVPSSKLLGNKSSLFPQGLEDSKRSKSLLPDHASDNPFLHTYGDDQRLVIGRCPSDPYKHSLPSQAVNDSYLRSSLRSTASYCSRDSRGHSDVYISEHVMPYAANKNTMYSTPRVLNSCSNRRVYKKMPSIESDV
Chain of presynaptic NMDARs of spinal lamina II neurons (Q00960 27-1482, other chains not shown): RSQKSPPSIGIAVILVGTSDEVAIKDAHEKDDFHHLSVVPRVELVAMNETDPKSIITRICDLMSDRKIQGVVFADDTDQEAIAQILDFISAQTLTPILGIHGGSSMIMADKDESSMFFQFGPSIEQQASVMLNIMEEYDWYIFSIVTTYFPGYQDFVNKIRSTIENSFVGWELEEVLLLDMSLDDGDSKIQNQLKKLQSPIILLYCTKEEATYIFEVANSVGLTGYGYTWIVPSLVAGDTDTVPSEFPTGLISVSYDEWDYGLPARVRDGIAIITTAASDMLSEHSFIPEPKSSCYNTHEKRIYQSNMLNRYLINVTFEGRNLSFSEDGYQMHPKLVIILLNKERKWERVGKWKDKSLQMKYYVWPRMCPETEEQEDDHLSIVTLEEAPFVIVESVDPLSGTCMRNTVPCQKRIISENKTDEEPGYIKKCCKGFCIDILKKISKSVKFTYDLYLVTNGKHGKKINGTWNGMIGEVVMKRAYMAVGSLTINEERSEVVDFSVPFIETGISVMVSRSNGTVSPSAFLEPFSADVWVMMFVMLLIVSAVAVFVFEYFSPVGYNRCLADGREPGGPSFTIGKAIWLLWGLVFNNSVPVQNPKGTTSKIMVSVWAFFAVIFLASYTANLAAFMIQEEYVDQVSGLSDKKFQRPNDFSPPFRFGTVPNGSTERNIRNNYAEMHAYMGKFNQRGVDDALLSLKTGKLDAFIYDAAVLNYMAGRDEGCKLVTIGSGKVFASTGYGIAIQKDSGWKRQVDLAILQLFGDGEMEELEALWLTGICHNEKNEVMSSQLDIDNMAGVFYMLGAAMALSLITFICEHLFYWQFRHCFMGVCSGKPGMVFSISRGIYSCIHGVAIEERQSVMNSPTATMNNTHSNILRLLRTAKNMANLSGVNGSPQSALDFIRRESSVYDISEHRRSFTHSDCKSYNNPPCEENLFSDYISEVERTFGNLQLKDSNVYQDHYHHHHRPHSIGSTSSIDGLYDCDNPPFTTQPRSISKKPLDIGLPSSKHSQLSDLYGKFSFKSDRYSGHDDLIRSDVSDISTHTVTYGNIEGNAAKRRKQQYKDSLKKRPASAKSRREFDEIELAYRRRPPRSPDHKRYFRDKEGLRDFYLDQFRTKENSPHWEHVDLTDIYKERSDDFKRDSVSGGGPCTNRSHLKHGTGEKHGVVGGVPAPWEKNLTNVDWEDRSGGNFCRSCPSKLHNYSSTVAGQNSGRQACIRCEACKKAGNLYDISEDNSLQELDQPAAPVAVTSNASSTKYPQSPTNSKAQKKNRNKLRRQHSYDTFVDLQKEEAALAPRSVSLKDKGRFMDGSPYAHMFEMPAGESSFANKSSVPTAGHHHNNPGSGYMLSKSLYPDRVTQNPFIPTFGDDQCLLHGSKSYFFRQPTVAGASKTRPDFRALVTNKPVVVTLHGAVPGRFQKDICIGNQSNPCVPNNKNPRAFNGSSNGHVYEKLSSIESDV

CN1CC[C@]23c4c5ccc(O)c4O[C@H]2[C@@H](O)C=C[C@H]3[C@H]1C5.O=S(=O)(O)O [morphine, morphine sulfate]
effect of 5 mg/kg morphine on the withdrawal thresholds (morphine-treated rats; by day 6, vehicle- or control peptide-treated rats): failed to produce a significant effect | anti-nociceptive effect of morphine (morphine-treated rats; [5]): gradual decrease | baseline withdrawal thresholds (mechanical and thermal hyperalgesia) (morphine-treated rats; [5]): gradual reduction | amplitude of monosynaptic EPSCs evoked from the dorsal root ([1]; chronic morphine): markedly increased | NMDAR-mediated frequency of mEPSCs of spinal dorsal horn neurons ([1]; morphine 10 mg/kg twice a day for 8 day): significantly increased | anti-nociceptive effect of morphine at the end of 8-day treatment (WT and Cacna2d1 KO mice; Cacna2d1 KO mice): largely preserved | baseline withdrawal threshold (WT and Cacna2d1 KO mice; Cacna2d1 KO mice, daily morphine): did not significantly affect | anti-nociceptive effect of morphine (WT and Cacna2d1 KO mice; [6]): diminished | baseline withdrawal thresholds to noxious pressure and heat (WT and Cacna2d1 KO mice; [6]): gradually reduced

CC(C)C[C@H](CN)CC(=O)O [pregabalin]
paclitaxel-induced pain hypersensitivity (tactile allodynia, mechanical and thermal hyperalgesia) (paclitaxel-treated rats): readily reversed | reduced PPR of evoked EPSCs ([2]; paclitaxel-treated rats): completely normalized | increased amplitude of evoked monosynaptic EPSCs [2, 7]: returned the amplitude of evoked monosynaptic EPSCs of lamina II neurons to the baseline level | increased frequency of mEPSCs of lamina II neurons [2, 7]: completely normalized | PPR of evoked EPSCs ([2]; vehicle-treated rats): had no effect | amplitude of evoked monosynaptic EPSCs [2, 8]: had no effect | frequency of mEPSCs of lamina II neurons [2, 8]: had no effect

CCCCc1nc(Cl)c(CO)n1Cc1ccc(-c2ccccc2-c2nn[nH]n2)cc1 [losartan]
effect of Ang II on mEPSC frequency in pretreated slices [3]: completely blocked | effect of Ang II on puff NMDA currents in pretreated slices ([3]; 30 min): abolished

CC12CC3CC(C)(C1)CC(N)(C3)C2 [memantine]
pain hypersensitivity induced by Cacna2d1 overexpression (tactile and pressure withdrawal thresholds) [4]: readily reversed

Source: patent US11787839B2, “Targeting α2δ-1-bound glutamate receptors for treating diseases and disorders” (Board of Regents, The University of Texas System, priority 2017, dated 2023)
